# Laboratory results taken from ChEMBL document CHEMBL1275326, “Synthesis and identification of a new class of antileukemic agents containing 2-(arylcarboxamide)-(S)-6-amino-4,5,6,7-tetrahydrobenzo[d]thiazole” (Eur J Med Chem, 2010).
# Calls of active or inactive are those of the source. No cut-off for these calls is given here.
# Key:
# K562 [1] = assay: Cytotoxicity against human K562 cells after 48 to 72 hrs by MTT assay; format: functional, cell-based
# CCRF-CEM [2] = assay: Cytotoxicity against human CEM cells after 48 to 72 hrs by MTT assay; format: functional, cell-based
# [3] = Cytotoxicity against human HEK293T cells at 1 to 5 uM after 48 to 72 hrs by MTT assay; format: cell-based; conditions: hek-293t
# K562 [4] = assay: Cell cycle arrest in human K562 cells assessed as accumulation at G1 phase at 10 uM after 48 hrs using propidium iodide staining by FACS analysis; format: functional, cell-based
# K562 [5] = assay: Cell cycle arrest in human K562 cells assessed as accumulation at S phase at 10 uM after 48 hrs using propidium iodide staining by FACS analysis; format: functional, cell-based
# K562 [6] = assay: Cytotoxicity against human K562 cells at 10 to 100 uM by MTT assay; format: functional, cell-based; conditions: TDE = time-dependent effect
# K562 [7] = assay: Cytotoxicity against human K562 cells after 24 hrs by LDH release assay; format: functional, cell-based
# K562 [8] = assay: Cytotoxicity against human K562 cells at 10 to 100 uM after 24 hrs by trypan blue exclusion assay; format: functional, cell-based
# K562 [9] = assay: Cell cycle arrest in human K562 cells assessed as accumulation at G2/M phase at 10 uM after 48 hrs using propidium iodide staining by FACS analysis; format: functional, cell-based
# CCRF-CEM [10] = assay: Cytotoxicity against human CEM cells at 10 to 100 uM by MTT assay; format: functional, cell-based; conditions: TDE = time-dependent effect
# K562 [11] = assay: Cell cycle arrest in human K562 cells assessed as accumulation at G0/G1 phase at 10 uM after 48 hrs using propidium iodide staining by FACS analysis; format: functional, cell-based
SMILES,IC50 (K562 [1]) [µM],IC50 (CCRF-CEM [2]) [µM],further results
N[C@H]1CCc2nc(NC(=O)c3cc([N+](=O)[O-])cc([N+](=O)[O-])c3)sc2C1,8.16,9.02,–
COc1cccc(C(=O)Nc2nc3c(s2)C[C@@H](N)CC3)c1,17.9,13.8,–
N[C@H]1CCc2nc(NC(=O)c3cccc(Br)c3)sc2C1,21,22.8,–
N[C@H]1CCc2nc(NC(=O)c3ccc(Cl)cc3Cl)sc2C1,7.72,8.72,–
CC(C)(C)c1ccc(C(=O)Nc2nc3c(s2)C[C@@H](N)CC3)cc1.Cl,4.52,4.52,Activity [3]: Non-toxic; Activity (K562 [4]): inactive; Activity (K562 [5]): inactive; Activity (K562 [1]): Dose-dependent effect; Activity (K562 [6]): tde; Activity (K562 [7]): Dose-dependent effect; Activity (CCRF-CEM [2]): Dose-dependent effect; Activity (K562 [8]): Active; Activity (K562 [9]): inactive; Activity (CCRF-CEM [10]): tde; Activity (K562 [11]): inactive
N[C@H]1CCc2nc(NC(=O)c3c(F)cccc3F)sc2C1,> 100,81.2,–
N[C@H]1CCc2nc(NC(=O)c3ccccc3)sc2C1,65.7,61.4,–
N[C@H]1CCc2nc(NC(=O)c3ccccc3F)sc2C1,57.2,56.6,–
